Results as given in PubChem BioAssay (NCI).
Where “and” joins values, the source holds several entries; their conditions need not be identical. Equal entries are not always repeated.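 Five compound concentrations were applied to cells in 96-well plates for 48 hours; endpoints were derived by simple linear interpolation of the resulting dose-response curve. The concentration for 50% growth inhibition is given as GI50. TGI marks complete inhibition of growth.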

What was measured:
Experiment in all cases: NCI-60 cell line screen, 48 h
[1] = test system: A549 NSCLC
[2] = test system: DU-145 prostate
[3] = test system: HCT-116 colon
[4] = test system: HOP-62 NSCLC
[5] = test system: OVCAR-3 ovarian
[6] = test system: SK-MEL-5 melanoma
[7] = test system: SN12C renal
[8] = test system: SR leukemia
[9] = test system: KM20L2 colon
[10] = test system: M19-MEL melanoma

SMILES | TGI [1] | TGI [2] | TGI [3] | TGI [4] | TGI [5] | TGI [6] | TGI [7] | TGI [8] | GI50 [1] | GI50 [2] | GI50 [3] | GI50 [4] | GI50 [5] | GI50 [6] | GI50 [7] | GI50 [8] | TGI [9] | TGI [10]
O=[N+]([O-])c1nccn1CC(O)CN1CCCCC1 (stereo not given) | > 100 µM | > 100 µM | > 100 µM | > 100 µM | > 100 µM | > 100 µM | > 100 µM | > 100 µM | – | – | – | – | – | – | – | – | – | –
C=C/C(C)=C/C[C@]1(C)[C@H](C)[C@@H](OC(=O)CCC)[C@H](O)[C@@]23C(=C[C@H](OC)C[C@@H]12)[C@@H](OC(=O)CCC)O[C@H]3OC(C)=O | 3.62 µM | 2.9 µM | 1.96 µM | 3.62 µM | 0.4 µM | 2.03 µM | 1.4 µM | 1.49 µM | 1.65 µM | 1530 nM | 495 nM | 1.62 µM | 191 nM | 704 nM | 0.316 µM | 324 nM | – | –
COc1cc2ncnc(-n3ncc4cc(NC(=O)Nc5ccc(Cl)c(Cl)c5)ccc43)c2cc1OC | 5.75 µM | 11.9 µM | 10.3 µM | 3.76 µM | 3.7 µM | 3.89 µM | 4.78 µM | > 100 µM | 2.69 µM | 3200 nM | 2800 nM | 1.91 µM | 1920 nM | 2090 nM | 2.1 µM | 2750 nM | – | –
CN(C)c1ccc(/C=C2\N=C(c3ccccc3)N(c3cc(C(F)(F)F)ccc3Cl)C2=O)cc1 | > 100 µM | > 100 µM | > 100 µM | > 100 µM | > 100 µM | > 100 µM | > 100 µM | – | > 100 µM | > 100000 nM | > 100000 nM | > 100 µM | > 78500 nM | > 100000 nM | > 100 µM | 63.3 nM | – | –
O=C1C2=C(C(=O)c3cnccc31)C1C=CC2CC1 (stereo not given) | 8.73 µM | 3.24 µM | 3.03 µM | 6.6 µM | 3.66 µM | 3.85 µM | 3.1 µM | > 21.2 µM | 3.67 µM | 1800 nM | 1650 nM | 2.91 µM | 1850 nM | 1840 nM | 1.69 µM | 3220 nM | – | –
COC(=O)C12CC(NC(=O)c3csc([C@@H](C[C@H](C(C)C)N(C)C(=O)[C@@H](NC(=O)[C@H]4CCCCN4C)C4CC4)OC(C)=O)n3)(C1)C2 | > 16.7 µM | > 16.7 µM | > 16.7 µM | > 16.7 µM | – | 0.449 µM | > 16.7 µM | > 16.7 µM | 0.101 µM | 15.4 nM | 22.8 nM | 0.0347 µM | 5.9 nM | 23 nM | 0.0207 µM | 1.93 nM | – | –
Cc1nc2ccc(Br)cc2c(=O)n1-c1ccc(NC2OCC(O)C(O)C2O)cc1 (stereo not given) | > 100 µM | > 100 µM | 53.7 µM and > 100 µM | > 100 µM | > 100 µM | > 100 µM | > 100 µM | 59.7 µM and > 100 µM | – | – | 17700 nM and 79200 nM | – | 34800 nM and > 100000 nM | – | 30 µM and > 100 µM | 25000 nM and 61000 nM | – | –
COc1ccc(NC(=O)/C=C(C)/C=C/C=C(C)/C=C/C2=C(C)CCCC2(C)C)cc1 | 30.7 µM | 20.3 µM | 6.99 µM | 34.1 µM | 5.9 µM | 21.1 µM | 23.9 µM | 11.9 µM | 14.9 µM | 8200 nM | 2430 nM | 18.2 µM | 2640 nM | 9060 nM | 11.2 µM | 1980 nM | – | –
Oc1c(Cl)cc(Cl)c2ccc(Cn3cc(-c4cc(C(F)(F)F)cc(C(F)(F)F)c4)nn3)nc12 | 31.6 µM | 3.06 µM | 1.76 µM | 30.7 µM | 2.56 µM | 10.7 µM | 11.8 µM | 5.68 µM | 15.8 µM | 1570 nM | 481 nM | 15.5 µM | 1280 nM | 2980 nM | 3.11 µM | 714 nM | – | –
CCOC(=O)c1c(C)n(Cc2ccc(Cl)cc2Cl)c2c1cc1oc(=O)c(=O)n3cnc2c13 | 21.9 µM | 32.9 µM | 36 µM | 33.1 µM | 31.9 µM | 34.3 µM | 35.2 µM | 5.85 µM | 9.71 µM | 17300 nM | 18600 nM | 15.5 µM | 14400 nM | 18000 nM | 19 µM | 1090 nM | – | –
O=C1C(=O)N(c2ccc(Cl)cc2)C(=O)C(=O)C1c1nc2ccccc2s1 | – | – | > 100 µM | > 100 µM | > 100 µM | > 100 µM | > 100 µM | – | – | – | – | – | – | – | – | – | > 100 µM | > 100 µM
NC(=O)c1cc(N(CCO)CCO)c([N+](=O)[O-])cc1[N+](=O)[O-] | > 100 µM | > 100 µM | > 100 µM | > 100 µM | > 100 µM | > 100 µM | > 100 µM | > 100 µM | – | – | – | – | – | – | – | – | – | –
Cc1cc(Nc2nc(C(=O)Nc3ccccc3)nc3ccccc23)n[nH]1 | > 25 µM | > 25 µM | > 25 µM | > 25 µM | > 25 µM | > 25 µM | > 25 µM | > 25 µM | 13.9 µM | 9080 nM | 4700 nM | 14.2 µM | 11500 nM | 22500 nM | 10.3 µM | 4360 nM | – | –
CCC(C)Oc1nc2c(c(=O)n(C)c(=O)n2C)n1C (stereo not given) | > 100 µM | > 100 µM | > 100 µM | > 100 µM | > 100 µM | > 100 µM | > 100 µM | > 100 µM | > 100 µM | > 100000 nM | > 100000 nM | > 100 µM | > 100000 nM | > 100000 nM | > 100 µM | > 100000 nM | – | –
O=C(Nc1ccc(-n2ccc3c(NC(=O)c4ccccc4)ncnc32)cc1)c1cccc(C(F)(F)F)c1 | 21.1 µM | 16.1 µM | 15.9 µM | 24.4 µM | 20.9 µM | 15.8 µM | 27.9 µM | > 32.5 µM | 0.966 µM | 1770 nM | 139 nM | 10.9 µM | 4370 nM | 232 nM | 5.27 µM | 67.8 nM | – | –
c1cc(-c2nnc(SSc3ncnc4nc[nH]c34)o2)ccn1 | > 100 µM | > 100 µM | > 100 µM | > 100 µM | 1.73 µM | > 100 µM | > 100 µM | > 100 µM | 23 µM | 455 nM | 2000 nM | 2.52 µM | 319 nM | 3460 nM | 6.6 µM | 576 nM | – | –
